Laboratory results from patent publication US10829520B2, “Beta-hairpin peptidomimetics” (POLYPHOR AG, priority 2015, dated 2020).
Where a SMILES comes first, the peptide text is derived from it. Bridges are numbered along the chain shown (N, C = ends). Roman numbers before positions name the chains, in order. [ ]: non-standard residue; d: D form. Hyp = O=C(O)[C@@H]1C[C@@H](O)CN1; NMeDab = CN[C@@H](CCN)C(=O)O; Tle = CC(C)(C)[C@H](N)C(=O)O; dDab = NCC[C@@H](N)C(=O)O; Nle = CCCC[C@H](N)C(=O)O; Dab = NCC[C@H](N)C(=O)O; dAze = O=C(O)[C@H]1CCN1; Dap = NC[C@H](N)C(=O)O

Columns and labels:
Assay type in all cases: cell-based
[1] = system: human red blood cells (hRBC); experiment: Hemolysis of human red blood cells; conditions: red cells of human, 1 h, 100
Outline: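 Washed fresh human erythrocytes (20% v/v, ~0.9×10^9 cells/mL final) were incubated with peptides at 100 μg/mL for 1 h at 37 °C with shaking. Supernatant OD540 measured; hemolysis expressed as % of 2.5% Triton X-100 lysis, with PBS/0.001% acetic acid as 0%.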

[2] = system: Pseudomonas aeruginosa ATCC 27853; conditions: ATCC 27853
Outline: (§1)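 Read-out is the minimal inhibitory concentration in μg/mL, taken as the lowest peptide level without visible growth after 18-20 h at 35° C. Testing followed CLSI broth microdilution in cation-adjusted Mueller-Hinton II broth plus 0.002% Polysorbate 80, with roughly 10^6 CFU/mL.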

[3] = system: Acinetobacter baumannii 872842; conditions: 872842
[4] = system: Klebsiella pneumoniae SSI #3010; conditions: SSI #3010
Outline: as §1

Escherichia coli 926415 = conditions: 926415
[5] = system: Acinetobacter baumannii DSM 30008; conditions: DSM 30008
Outline: as §1

[6] = system: Klebsiella pneumoniae 968733; conditions: 968733
[7] = system: Escherichia coli ATCC 25922; conditions: ATCC 25922
Outline: as §1

Structure (SMILES)	Hemolysis at 100 μg/mL [1] [%]	Pseudomonas aeruginosa ATCC 27853 MIC [2] [µg/mL]	Acinetobacter baumannii 872842 MIC [3] [µg/mL]	Klebsiella pneumoniae SSI #3010 MIC [4] [µg/mL]	Escherichia coli 926415 MIC (Escherichia coli 926415) [µg/mL]	Acinetobacter baumannii DSM 30008 MIC [5] [µg/mL]	Klebsiella pneumoniae 968733 MIC [6] [µg/mL]	Escherichia coli ATCC 25922 MIC [7] [µg/mL]
CCCC[C@@H]1NC(=O)[C@@H]2CCCN2C(=O)[C@H]2CCCN2C(=O)[C@H](CO)NC(=O)[C@H](CO)NC(=O)[C@H](C(C)(C)C)NC(=O)[C@H](CCN)NC(=O)[C@H](Cc2c[nH]c3ccccc23)NC(=O)[C@H](CCN)NC(=O)[C@@H](CCN)NC(=O)[C@H](CCC(=O)N[C@@H](CCN)C(=O)N[C@H](C(=O)N[C@@H](CCN)C(=O)N[C@H]2CCNC(=O)[C@H]([C@@H](C)O)NC(=O)[C@H](CCN)NC(=O)[C@H](CCN)NC(=O)[C@H](CC(C)C)NC(=O)[C@@H](CC(C)C)NC(=O)[C@H](CCN)NC2=O)[C@@H](C)O)NC(=O)[C@H](CCN)NC(=O)[C@H](Cc2ccc(O)cc2)NC(=O)[C@H](CN)NC1=O [Ex. 83] (I: cyclo([Nle][Dap]Y[Dab]E[dDab][Dab]W[Dab][Tle]SS[dP]P) / II: [Dab]T[Dab][Dab][Dab][dL]L[Dab][Dab]T; amide I:5-II:N; lactam II:4-II:C)	1	1	1	2	1	1	4	2
CCCC[C@@H]1NC(=O)[C@@H]2CCCN2C(=O)[C@H]2CCCN2C(=O)[C@H](CO)NC(=O)[C@H](CN)NC(=O)[C@H](C(C)(C)C)NC(=O)[C@H](CCN)NC(=O)[C@H](Cc2c[nH]c3ccccc23)NC(=O)[C@H](CCN)NC(=O)[C@@H](CCN)NC(=O)[C@H](CCC(=O)N[C@@H](CCN)C(=O)N[C@H](C(=O)N[C@@H](CCN)C(=O)N[C@H]2CCNC(=O)[C@H]([C@@H](C)O)NC(=O)[C@H](CCN)NC(=O)[C@H](CCN)NC(=O)[C@H](CC(C)C)NC(=O)[C@@H](CC(C)C)NC(=O)[C@H](CCN)NC2=O)[C@@H](C)O)NC(=O)[C@H](CCN)NC(=O)[C@H](Cc2ccc(O)cc2)NC(=O)[C@H](CO)NC1=O [Ex. 84] (I: cyclo([Nle]SY[Dab]E[dDab][Dab]W[Dab][Tle][Dap]S[dP]P) / II: [Dab]T[Dab][Dab][Dab][dL]L[Dab][Dab]T; amide I:5-II:N; lactam II:4-II:C)	1	2	2	2	1	1	2	1
CC(C)C[C@@H]1NC(=O)[C@@H](CC(C)C)NC(=O)[C@H](CCN)NC(=O)[C@@H](NC(=O)[C@H](CCN)NC(=O)[C@@H](NC(=O)[C@H](CCN)NC(=O)CC[C@@H]2NC(=O)[C@H](CCN)NC(=O)[C@H](Cc3ccc(O)cc3)NC(=O)[C@H](CN)NC(=O)[C@H](C(C)C)NC(=O)[C@@H]3CCCN3C(=O)[C@H]3CCCN3C(=O)[C@H](CO)NC(=O)[C@H](C)NC(=O)[C@H](C(C)C)NC(=O)[C@H](CCN)NC(=O)[C@H](Cc3c[nH]c4ccccc34)NC(=O)[C@H](CCN)NC(=O)[C@@H](CCN)NC2=O)[C@@H](C)O)CCNC(=O)[C@H]([C@@H](C)O)NC(=O)[C@H](CCN)NC(=O)[C@H](CCN)NC1=O [Ex. 85] (I: cyclo(V[Dap]Y[Dab]E[dDab][Dab]W[Dab]VAS[dP]P) / II: [Dab]T[Dab][Dab][Dab][dL]L[Dab][Dab]T; amide I:5-II:N; lactam II:4-II:C)	<1	1	1	2	2	1	8	1
CC(C)C[C@@H]1NC(=O)[C@@H](Cc2ccccc2)NC(=O)[C@H](CCN)NC(=O)[C@@H](NC(=O)[C@H](CCN)NC(=O)[C@@H](NC(=O)[C@H](CCN)NC(=O)CC[C@@H]2NC(=O)[C@H](CCN)NC(=O)[C@H](Cc3ccc(O)cc3)NC(=O)[C@@H]3CCNC(=O)C[C@H](NC(=O)[C@H](C(C)(C)C)NC(=O)[C@H](CCN)NC(=O)[C@H](Cc4c[nH]c5ccccc45)NC(=O)[C@H](CCN)NC(=O)[C@@H](CCN)NC2=O)C(=O)N[C@@H]([C@@H](C)O)C(=O)N2CC[C@@H]2C(=O)N2CCC[C@H]2C(=O)N[C@@H](C(C)C)C(=O)N3)[C@@H](C)O)CCNC(=O)[C@H]([C@@H](C)O)NC(=O)[C@H](CCN)NC(=O)[C@H](CCN)NC1=O [Ex. 86] (I: cyclo(DT[dAze]PV[Dab]Y[Dab]E[dDab][Dab]W[Dab][Tle]) / II: [Dab]T[Dab][Dab][Dab][dF]L[Dab][Dab]T; lactam I:1-I:6, II:4-II:C; amide I:9-II:N)	1	0.5	0.5	0.25	0.25	1	0.5	0.25
CC(C)C[C@@H]1NC(=O)[C@@H](CC(C)C)NC(=O)[C@H](CCN)NC(=O)[C@@H](NC(=O)[C@H](CCN)NC(=O)[C@@H](NC(=O)[C@H](CCN)NC(=O)CC[C@@H]2NC(=O)[C@H](CCN)NC(=O)[C@H](Cc3ccc(O)cc3)NC(=O)[C@@H]3CCNC(=O)C[C@H](NC(=O)[C@H](C(C)(C)C)NC(=O)[C@H](CCN)NC(=O)[C@H](Cc4c[nH]c5ccccc45)NC(=O)[C@H](CCN)NC(=O)[C@@H](CCN)NC2=O)C(=O)N[C@@H]([C@@H](C)O)C(=O)N2CC[C@@H]2C(=O)N2CCC[C@H]2C(=O)N[C@@H](C(C)C)C(=O)N3)[C@@H](C)O)CCNC(=O)[C@H]([C@@H](C)O)NC(=O)[C@H](CCN)NC(=O)[C@H](CCN)NC1=O [Ex. 87] (I: cyclo(W[Dab][Tle]DT[dAze]PV[Dab]Y[Dab]E[dDab][Dab]) / II: [Dab]T[Dab][Dab][Dab][dL]L[Dab][Dab]T; lactam I:4-I:9, II:4-II:C; amide I:12-II:N)	<1	0.25	0.5	0.25	0.125	0.25	0.25	0.125
CC(C)C[C@@H]1NC(=O)[C@@H](CC(C)C)NC(=O)[C@H](CCN)NC(=O)[C@@H](NC(=O)[C@H](CCN)NC(=O)[C@@H](NC(=O)[C@H](CCN)NC(=O)CC[C@@H]2NC(=O)[C@H](CCN)NC(=O)[C@H](Cc3ccc(O)cc3)NC(=O)[C@H](CO)NC(=O)[C@H](CC(C)C)NC(=O)[C@@H]3C[C@@H](O)CN3C(=O)[C@@H](C)NC(=O)[C@H](CO)NC(=O)[C@H]([C@@H](C)O)NC(=O)[C@H](C(C)C)NC(=O)[C@H](CCN)NC(=O)[C@H](Cc3c[nH]c4ccccc34)NC(=O)[C@H](CCN)NC(=O)[C@@H](CCN)NC2=O)[C@@H](C)O)CCNC(=O)[C@H]([C@@H](C)O)NC(=O)[C@H](CCN)NC(=O)[C@H](CCN)NC1=O [Ex. 88] (I: cyclo([Dab]E[dDab][Dab]W[Dab]VTS[dA][Hyp]LSY) / II: [Dab]T[Dab][Dab][Dab][dL]L[Dab][Dab]T; amide I:2-II:N; lactam II:4-II:C)	1	0.5	1	0.25	1	0.5	2	0.125
CC(C)C[C@@H]1NC(=O)[C@@H](CC(C)C)NC(=O)[C@H](CCN)NC(=O)[C@@H](NC(=O)[C@H](CCN)NC(=O)[C@@H](NC(=O)[C@H](CCN)N(C)C(=O)CC[C@@H]2NC(=O)[C@H](CCN)NC(=O)[C@H](Cc3ccc(O)cc3)NC(=O)[C@H](CO)NC(=O)[C@H](CC(C)C)NC(=O)[C@@H]3CCCN3C(=O)[C@H]3CCCN3C(=O)[C@H](CO)NC(=O)[C@H]([C@@H](C)O)NC(=O)[C@H](C(C)C)NC(=O)[C@H](CCN)NC(=O)[C@H](Cc3c[nH]c4ccccc34)NC(=O)[C@H](CCN)NC(=O)[C@@H](CCN)NC2=O)[C@@H](C)O)CCNC(=O)[C@H]([C@@H](C)O)NC(=O)[C@H](CCN)NC(=O)[C@H](CCN)NC1=O [Ex. 89] (I: cyclo(LSY[Dab]E[dDab][Dab]W[Dab]VTS[dP]P) / II: [NMeDab]T[Dab][Dab][Dab][dL]L[Dab][Dab]T; amide I:5-II:N; lactam II:4-II:C)	1	0.25	1	0.25	1	0.125	0.5	0.125
